Values of other authors in patent US20100172990A1, “BIOCOMPATIBLE MICROGELS AND APPLICATIONS THEREOF” (UNIVERSIDAD DEL PAIS VASCO, priority 2007, published 2010).

Conditions: at 55° C.

Q: With `C=CN1CCCCCC1=O` [VCL, N-vinylcaprolactam] as the compound, how does the solubility in water read?
A: approximately 88 g/L
